In ChEMBL document CHEMBL5154705, “Discovery and mechanistic study of thiazole-4-acylsulfonamide derivatives as potent and orally active ChemR23 inhibitors with a long-acting effect in cynomolgus monkeys” (Bioorg Med Chem, 2022):

Assays:
[1] = Drug concentration in cynomolgus monkey plasma at 0.3 mg/kg, po after 8 hrs; format: ADME, organism-based, Macaca fascicularis
[2] = Tmax in cynomolgus monkey at 0.3 mg/kg, po; format: ADME, organism-based, Macaca fascicularis; conditions: in vivo
[3] = AUC(0 to infinity) in cynomolgus monkey at 0.3 mg/kg, po; format: ADME, organism-based, Macaca fascicularis; parameters: time infinity, dose 0.3 mg/kg, route po; conditions: in vivo
[4] = Half life in cynomolgus monkey at 0.3 mg/kg, po; format: ADME, organism-based, Macaca fascicularis; conditions: in vivo
[5] = Cmax in cynomolgus monkey at 0.3 mg/kg, po; format: ADME, organism-based, Macaca fascicularis; parameters: dose 0.3 mg/kg, route po; conditions: in vivo
[6] = MRT in cynomolgus monkey at 0.3 mg/kg, po; format: ADME, organism-based, Macaca fascicularis; conditions: in vivo
[7] = target: T1, Chemerin-like receptor 1 (Homo sapiens) (UniProt Q99788); conditions: CAL1
T1 sequence (whole entry): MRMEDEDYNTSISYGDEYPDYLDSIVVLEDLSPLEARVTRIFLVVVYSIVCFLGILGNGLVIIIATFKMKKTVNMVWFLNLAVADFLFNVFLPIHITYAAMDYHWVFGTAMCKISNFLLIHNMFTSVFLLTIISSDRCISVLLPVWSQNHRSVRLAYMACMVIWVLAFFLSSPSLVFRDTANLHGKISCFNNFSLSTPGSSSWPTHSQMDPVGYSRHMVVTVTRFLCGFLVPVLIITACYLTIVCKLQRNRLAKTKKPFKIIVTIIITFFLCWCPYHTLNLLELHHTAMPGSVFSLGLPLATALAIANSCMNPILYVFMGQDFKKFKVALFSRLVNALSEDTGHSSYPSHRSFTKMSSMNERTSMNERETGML

[8] = Cmax in cynomolgus monkey at 0.3 to 1 mg/kg, po; format: ADME, organism-based, Macaca fascicularis; parameters: route po; conditions: in vivo, dose 0.3-1 mg/kg
[9] = Drug concentration in cynomolgus monkey plasma at 1 mg/kg, po after 8 hrs; format: ADME, organism-based, Macaca fascicularis
[10] = MRT in cynomolgus monkey at 0.3 to 1 mg/kg, po; format: ADME, organism-based, Macaca fascicularis; conditions: in vivo, dose 0.3-1 mg/kg
[11] = Half life in cynomolgus monkey at 0.3 to 1 mg/kg, po; format: ADME, organism-based, Macaca fascicularis; conditions: in vivo, dose 0.3-1 mg/kg
[12] = Tmax in cynomolgus monkey at 0.3 to 1 mg/kg, po; format: ADME, organism-based, Macaca fascicularis; conditions: in vivo, dose 0.3-1 mg/kg
[13] = AUC(0 to infinity) in cynomolgus monkey at 0.3 to 1 mg/kg, po; format: ADME, organism-based, Macaca fascicularis; parameters: route po; conditions: in vivo, dose 0.3-1 mg/kg
[14] = Cmax in cynomolgus monkey at 1 mg/kg, po; format: ADME, organism-based, Macaca fascicularis; parameters: dose 1 mg/kg, route po; conditions: in vivo
[15] = Half life in cynomolgus monkey at 1 mg/kg, po; format: ADME, organism-based, Macaca fascicularis; conditions: in vivo
[16] = Tmax in cynomolgus monkey at 1 mg/kg, po; format: ADME, organism-based, Macaca fascicularis; conditions: in vivo
[17] = AUC(0 to infinity) in cynomolgus monkey at 1 mg/kg, po; format: ADME, organism-based, Macaca fascicularis; parameters: time infinity, dose 1 mg/kg, route po; conditions: in vivo
[18] = MRT in cynomolgus monkey at 1 mg/kg, po; format: ADME, organism-based, Macaca fascicularis; conditions: in vivo
[19] = target: T1, Chemerin-like receptor 1 (Homo sapiens); assay: Binding affinity to ChemR23 (unknown origin) expressed in HEK293T cells at 40 to 1000 nM by flow cytometric analysis; format: cell-based; conditions: dose 40-1000 nM, DDE = dose-dependent effect
[20] = target: T2, Chemerin-like receptor 1 (Homo sapiens, UniProt Q99788); assay: Inhibition of human ChemR23 expressed in CAL-1 cells assessed as receptor internalization; format: functional, cell-based, CAL1
T2 sequence (Q99788 whole entry): T1 sequence (whole entry)

[21] = target: T2, Chemerin-like receptor 1; assay: Inhibition of human ChemR23 expressed in CAL-1 cells assessed as reduction in chemerin-induced calcium signaling; format: functional, cell-based, CAL1

SMILES: CCONC(=O)c1ccc(Cl)cc1-c1ccc([C@@H](C)N(CC2CC2)c2nc(C(=O)NS(=O)(=O)C3CC3)c(C3CC3)s2)cc1
- concentration at 8 h [1]: 87.7 ng/mL
- Tmax [2]: 4 h
- AUC(0-inf) [3]: 2060 ng·h/mL
- half-life [4]: 2.6 h
- Cmax [5]: 296 ng/mL
- MRT [6]: 5.3 h

SMILES: Cc1ccc(-c2nc(=O)o[nH]2)c(-c2ccc([C@@H](C)N(CC3CC3)c3nc(C(=O)NS(=O)(=O)C4CC4)c(C4CCOC4)s3)cc2)c1 (stereo partly specified)
- IC80 [7]: 12 nM

SMILES: Cc1ccc(-c2nc(=O)o[nH]2)c(-c2ccc([C@@H](C)N(CC3CC3)c3nc(C(=O)NS(=O)(=O)C4CC4)c(-c4ccoc4)s3)cc2)c1
- IC80 [7]: > 330 nM

SMILES: CNC(=O)c1ccc(Cl)cc1-c1ccc([C@@H](C)N(CC2CC2)c2nc(C(=O)NS(=O)(=O)C3CC3)c(C3CC3)s2)cc1
- concentration at 8 h [1]: 453 ng/mL
- IC80 [7]: 9 nM
- Tmax [2]: 4 h
- AUC(0-inf) [3]: 8720 ng·h/mL
- half-life [4]: 3.6 h
- Cmax [5]: 897 ng/mL
- MRT [6]: 6.4 h

SMILES: C[C@H](c1ccc(-c2cc(Cl)ccc2C(N)=O)cc1)N(CC1CC1)c1nc(C(=O)NS(=O)(=O)C2CC2)c(C2CC2)s1
- concentration at 8 h [1]: 68.9 ng/mL
- IC80 [7]: 9.8 nM
- Tmax [2]: 1.3 h
- AUC(0-inf) [3]: 2950 ng·h/mL
- half-life [4]: 1.8 h
- Cmax [5]: 730 ng/mL
- MRT [6]: 3.4 h

SMILES: Cc1ccc(-c2nc(=O)o[nH]2)c(-c2ccc([C@@H](C)N(CC3CC3)c3nc(C(=O)NS(=O)(=O)C4CC4)c(C4CCC4)s3)cc2)c1
- Cmax [8]: 7910 ng/mL
- concentration at 8 h [9]: 2600 ng/mL
- IC80 [7]: 130 nM
- MRT [10]: 5.7 h
- half-life [11]: 2.8 h
- Tmax [12]: 2.7 h
- AUC(0-inf) [13]: 55800 ng·h/mL

SMILES: Cc1ccc(-c2nc(=O)o[nH]2)c(-c2ccc([C@@H](C)N(CC3CC3)c3nc(C(=O)NS(=O)(=O)C4CC4)c(-c4ccncc4)s3)cc2)c1
- IC80 [7]: 74 nM

SMILES: CNC(=O)c1ccc(C)cc1-c1ccc([C@@H](C)N(CC2CC2)c2nc(C(=O)NS(=O)(=O)C3CC3)c(C3CC3)s2)cc1
- concentration at 8 h [9]: 996 ng/mL
- Cmax [14]: 2810 ng/mL
- IC80 [7]: 57 nM
- half-life [15]: 3 h
- Tmax [16]: 4 h
- AUC(0-inf) [17]: 21400 ng·h/mL
- MRT [18]: 6.1 h

SMILES: C[C@H](c1ccc(-c2cc(Cl)ccc2C(=O)NCCOCCOCCOCCOCCOCCOCCn2nnc3c2-c2ccccc2N(C(=O)CCNC(=O)CCOCCOCCOCCOCCNC(=O)c2ccc(C(=O)[O-])c(-c4c5ccc(=[N+](C)C)cc-5oc5cc(N(C)C)ccc45)c2)Cc2ccccc2-3)cc1)N(CC1CC1)c1nc(C(=O)NS(=O)(=O)C2CC2)c(C2CC2)s1
- Activity [19]: Dde

SMILES: Cc1ccc(-c2nc(=O)o[nH]2)c(-c2ccc([C@@H](C)N(CC3CC3)c3nc(C(=O)NS(=O)(=O)C4CC4)c(-c4cccnc4)s3)cc2)c1
- IC80 [7]: 39 nM

SMILES: Cc1sc(N(CC2CC2)[C@H](C)c2ccc(-c3cc(Cl)ccc3-c3nc(=O)o[nH]3)cc2)nc1C(=O)NS(C)(=O)=O
- concentration at 8 h [9]: 4.2 ng/mL
- Cmax [14]: 216 ng/mL
- AUC(0-inf) [17]: 726 ng·h/mL

SMILES: Cc1sc(N(CC2CC2)[C@H](C)c2ccc(-c3cc(Cl)ccc3-c3nc(=O)o[nH]3)cc2)nc1C(=O)NC1CC1
- IC80 [7]: > 330 nM

SMILES: C[C@H](c1ccc(-c2cc(Cl)ccc2C(=O)NCCOCCOCCOCCOCCOCCOCCN=[N+]=[N-])cc1)N(CC1CC1)c1nc(C(=O)NS(=O)(=O)C2CC2)c(C2CC2)s1
- EC50 [20]: 22 nM
- IC50 [21]: 12 nM

SMILES: C[C@H](c1ccc(-c2cc(Cl)ccc2C(=O)O)cc1)N(CC1CC1)c1nc(C(=O)NS(=O)(=O)C2CC2)c(C2CC2)s1
- IC80 [7]: 24 nM

SMILES: Cc1sc(N(CC2CC2)[C@H](C)c2ccc(-c3cc(Cl)ccc3-c3nc(=O)o[nH]3)cc2)nc1C(=O)NS(=O)(=O)C1(C)CC1
- IC80 [7]: 110 nM

SMILES: Cc1ccc(-c2nc(=O)o[nH]2)c(-c2ccc([C@@H](C)N(CC3CC3)c3nc(C(=O)NS(=O)(=O)C4CC4)c(CC(C)C)s3)cc2)c1
- Cmax [8]: 4250 ng/mL
- concentration at 8 h [9]: 772 ng/mL
- IC80 [7]: 42 nM
- MRT [10]: 4.9 h
- half-life [11]: 2.3 h
- Tmax [12]: 2.7 h
- AUC(0-inf) [13]: 21900 ng·h/mL

SMILES: Cc1ccc(-c2nc(=O)o[nH]2)c(-c2ccc([C@@H](C)N(CC3CC3)c3nc(C(=O)NS(=O)(=O)C4CC4)c(C)s3)cc2)c1
- Cmax [8]: 3180 ng/mL
- concentration at 8 h [9]: 233 ng/mL
- IC80 [7]: 53 nM
- MRT [10]: 4.2 h
- half-life [11]: 2.1 h
- Tmax [12]: 3.3 h
- AUC(0-inf) [13]: 12500 ng·h/mL
